Data as given in US12630594B2, “Allergy antigen and epitope for same” (HOYU CO., LTD., priority 2017, dated 2026).

Experiments:
[1] = tested on: IgE antibodies from patients; assay: Epitope mapping (3): alanine scanning; design: species or system human; details: positions numbered within the region important for binding; no influence on IgE binding when substituted by alanine
Experimental: From the amino acid sequences identified above in (A), a library of peptide fragments in which N-terminal amino acids were substituted one by one by alanine according to a technique called alanine scanning (Non Patent Literature 5) was prepared by the same technique as described above. The presence or absence of binding of an IgE antibody present in the serum of a patient and a non-fish-allergic subject to each peptide fragment was measured by the same technique as described above. Amino acids at positions where the binding activity against IgE antibodies from patients were lost or decreased by the substitution by alanine while binding activity against IgE antibodies from non-fish-allergic subjects arose were confirmed as amino acids important for exertion of original antigenicity, or amino acids influencing exertion of original antigenicity.
Chemiluminescence intensity in images obtained by measurement was converted into a numeric value in the same manner as in (A) using ImageQuant TL (GE Healthcare). When values obtained using the sequences (SEQ ID NOs: 150-204) that were of the peptides confirmed to bind to an IgE antibody in a patient specific manner from the images obtained from results about the serum of 5 patients and served as the basis of overlapping were defined as 100%, it was determined that: a peptide having a value of less than 20% had no binding activity against IgE antibodies; a peptide having a value of 20% or more and less than 50% had binding activity, albeit poor, against IgE antibodies; a peptide having a value of 50% or more and less than 70% had binding activity, albeit somewhat poor, against IgE antibodies; a peptide having a value of 70% or more and less than 90% had equivalent binding activity against IgE antibodies; and a peptide having a value of 90% or more had almost equivalent or good binding activity against IgE antibodies and was thus a peptide had remaining binding activity against IgE antibodies.
By this analysis, common sequences important for exertion of original antigenicity were found in regions important for binding to IgE antibodies from patients, in the sequences serving as the basis of overlapping.

[2] = tested on: IgE antibodies from patients; assay: Epitope mapping (2): overlapping 10-amino-acid peptide fragments shifted by one amino acid; type: binding, human; details: positions numbered within the 15-amino-acid epitope; serum of 5 patients
Source text: On the basis of the sequences (SEQ ID NOs: 150-154 for alpha-actinin-3, SEQ ID NO: 155 for EEF1A2 binding protein-like, SEQ ID NOs: 156 and 157 for alpha-1,4-glucan phosphorylase, SEQ ID NOs: 158 and 159 for elongation factor 2, SEQ ID NOs: 160-162 for heat shock cognate 70 kDa protein, SEQ ID NOs: 163-167 for serotransferrin, SEQ ID NOs: 168-171 for myosin binding protein H-like, SEQ ID NOs: 172-174 for desmin (fragment), SEQ ID NOs: 175-178 for capping protein (actin filament) muscle Z-line beta, SEQ ID NOs: 179-185 for myosin heavy chain, fast skeletal muscle-like, SEQ ID NO: 186 for glycogen phosphorylase, muscle form-like, SEQ ID NOs: 187-196 for myosin-binding protein C, fast-type-like, SEQ ID NO: 197 for ATP synthase subunit beta, mitochondrial, SEQ ID NO: 198 for L-lactate dehydrogenase A chain-like, SEQ ID NO: 199 for aldolase, SEQ ID NOs: 200-202 for β-enolase, and SEQ ID NOs: 203 and 204 for glyceraldehyde-3-phosphate dehydrogenase) of the peptides bound to an IgE antibody in serum in a patient-specific manner as described above in (A), a library of overlapping peptide fragments (length: 10 amino acids) was prepared using the sequences of the peptides and sequences in which sequences were added so as to flank each peptide in the amino acid sequences of allergen components (SEQ ID NO: 2 for alpha-actinin-3, SEQ ID NO: 5 for EEF1A2 binding protein-like, SEQ ID NO: 10 for alpha-1,4-glucan phosphorylase, SEQ ID NO: 19 for elongation factor 2, SEQ ID NO: 26 for heat shock cognate 70 kDa protein, SEQ ID NO: 33 for serotransferrin, SEQ ID NO: 43 for myosin binding protein H-like, SEQ ID NO: 56 for desmin (fragment), SEQ ID NO: 61 for capping protein (actin filament) muscle Z-line beta, SEQ ID NO: 70 for myosin heavy chain, fast skeletal muscle-like, SEQ ID NO: 110 for glycogen phosphorylase, muscle form-like, SEQ ID NO: 121 for myosin-binding protein C, fast-type-like, SEQ ID NO: 138 for ATP synthase subunit beta, mitochondrial, SEQ ID NO: 144 for L-lactate dehydrogenase A chain-like, SEQ ID NO: 445 for aldolase, SEQ ID NO: 446 for β-enolase, and SEQ ID NO: 447 for glyceraldehyde-3-phosphate dehydrogenase) comprising the sequences of the peptide. Epitope mapping was carried out using the library.
The peptides to be synthesized were shifted by one amino acid.
The library was prepared by the same procedure as described above in (A), and the presence or absence of binding of an IgE antibody present in the serum of a patient and a non-fish-allergic subject to each peptide fragment was measured by the same technique as described above. Amino acids at positions where the binding activity against IgE antibodies from patients were lost or decreased in the peptides shifted by one amino acid while binding activity against IgE antibodies from non-fish-allergic subjects arose were confirmed as amino acids adversely affecting the specificity of binding to IgE antibodies.
Chemiluminescence intensity in images obtained by measurement was converted into a numeric value in the same manner as in (A) using ImageQuant TL (GE Healthcare). […]

[3] = tested on: IgE antibody present in the serum of a fish-allergic patient; assay: Epitope mapping (1): peptide array of overlapping 15-amino-acid peptides; type: binding, human; details: average of 5 patients / average of 4 non-fish-allergic subjects at least 1.5, Mann-Whitney U test
Experimental: Epitope mapping was carried out using a library of overlapping peptides (length: 15 amino acids) corresponding to the amino acid sequences identified as allergy components of fish and the amino acid sequences of known fish allergy antigens aldolase, β-enolase, and glyceraldehyde-3-phosphate dehydrogenase (Non Patent Literature 2-4). Specifically, the library of overlapping peptides was prepared on the basis of the amino acid sequences of SEQ ID NO: 2 for alpha-actinin-3, SEQ ID NO: 5 for EEF1A2 binding protein-like, SEQ ID NO: 10 for alpha-1,4-glucan phosphorylase, SEQ ID NO: 19 for elongation factor 2, SEQ ID NO: 26 for heat shock cognate 70 kDa protein, SEQ ID NO: 33 for serotransferrin, SEQ ID NO: 43 for myosin binding protein H-like, SEQ ID NO: 56 for desmin (fragment), SEQ ID NO: 61 for capping protein (actin filament) muscle Z-line beta, SEQ ID NO: 70 for myosin heavy chain, fast skeletal muscle-like, SEQ ID NO: 110 for glycogen phosphorylase, muscle form-like, SEQ ID NO: 121 for myosin-binding protein C, fast-type-like, SEQ ID NO: 138 for ATP synthase subunit beta, mitochondrial, SEQ ID NO: 144 for L-lactate dehydrogenase A chain-like, SEQ ID NO: 445 for aldolase, SEQ ID NO: 446 for β-enolase, and SEQ ID NO: 447 for glyceraldehyde-3-phosphate dehydrogenase.
The peptides to be synthesized were shifted by 10 amino acids.
For preparation of peptide arrays, the Intavis CelluSpots™ technique was used. Specifically, the peptide arrays were prepared by the following procedure: (1) synthesizing peptides of interest on amino-modified cellulose disks using an automated chemical synthesis apparatus (Intavis MultiPep RS), (2) dissolving the amino-modified cellulose disks to obtain a cellulose-bound peptide solution, and (3) spotting the cellulose-bound peptides onto coated glass slides. The details of each procedure are as described below.
The presence or absence of binding, to each peptide fragment, of an IgE antibody present in the serum of a fish-allergic patient was measured through antigen-antibody reaction using the peptide arrays. The measurement was carried out according to the following procedure. • (1) The peptides were shaken at room temperature for 1 hour in PBST. • (2) The peptide arrays were shaken at overnight at room temperature in 5% serum/PBST. • (3) The peptide arrays were washed with a PBST solution (a PBS buffer containing 0.1% Tween 20 nonionic surfactant) for 5 minutes (×3). • (4) Anti-human IgE antibody-HRP(1:5,000, PBST) was added thereto, and the peptide arrays were shaken at room temperature for 1 hour. • (5) The peptide arrays were washed with a PBST solution for 5 minutes (×3). • (6) Pierce ECL Plus Western Blotting Substrate (produced by Thermo Fisher Scientific) was added thereto, and the peptide arrays were shaken at room temperature for 5 minutes. • (7) The chemiluminescence of the peptides treated as described above in (1) to • (6) was measured using Amersham Imager 600.
Chemiluminescence intensity in images obtained by the measurement described above in (7) was converted into a numeric value using ImageQuant TL (GE Healthcare). The average value of numeric values determined from images obtained from results about the serum of 5 patients was divided by the average value of numeric values determined from images obtained from results about the serum of 4 non-fish-allergic subjects. It was determined that a peptide having a calculated value (average value of the patient group/average value of the non-fish-allergic subject group) of at least 1.5 and a significant difference of […] in the Mann-Whitney U test was a peptide bound to an IgE antibody in a patient-specific manner.

Substance | Positions of amino acids of region important for binding in epitope [2] | IgE antibody binding in a patient-specific manner [3] | Non-binding-influencing amino acid in region important for binding [1]
3 (SCFYHAFAGAEQAET; epitope) [compound 3] | 1-15 | – | 2
4 (TKLRLSNRPAFMPSE; epitope) [compound 4] | 1-15 | – | –
7 (GGYIQAVLDRNLCEN; epitope) [compound 7] | – | bind in a patient-specific manner | –
9 (AIMDKKSNIRNMSVI; epitope) [compound 9] | – | bind in a patient-specific manner | –
10 (GKSTLTDSLVSKAGI; epitope) [compound 10] | – | bind in a patient-specific manner | –
12 (EAEQYKAADDVQRDK; heat shock cognate 70 kDa protein epitope) [compound 12] | – | – | 2
13 (KLSDEDKQKILDKCN; epitope) [compound 13] | – | – | 4
15 (YSGAFQCLKDGAGEV; epitope) [compound 15] | 8-15 | – | –
18 (YYGYNGAFRCLVEDA; epitope) [compound 18] | – | – | 2
19 (RYVKKVGEKINIVIP; epitope) [compound 19] | – | – | 3
21 (KEVIDYKPTPFVEHD; epitope) [compound 21] | 2-15 | – | –
25 (DVGRSAEVHSKKTVL; epitope) [compound 25] | 1-7 | – | –
26 (VILIKKAGDGSKKIK; epitope) [compound 26] | – | – | 3-5
27 (IHVVEVQEKSSGRTA; epitope) [compound 27] | 2-12 | – | –
30 (TVTALDFREGKEFKD; epitope) [compound 30] | – | – | 2-4
38 (LKATKKKKKPVVDEE; epitope) [compound 38] | – | – | 2
44 (YTFIPDGYALSLSAK; epitope) [compound 44] | – | – | 2-4
52 (YRHIADLAGHKDVIL; epitope) [compound 52] | – | – | 2-4
SEQ ID NO: 207: region important for binding, amino acids at positions 1-10 of epitope 1 (SEQ ID NO: 150) (SGERLPKPDK; epitope) | – | – | 2-6
SEQ ID NO: 210: region important for binding, amino acids at positions 9-14 of epitope 1 (SEQ ID NO: 150) (DKGKMR; epitope) | – | – | 3-5

Continued, in another order:

Positions of amino acids of region important for binding in epitope [2] | IgE antibody binding in a patient-specific manner [3] | Substance | Non-binding-influencing amino acid in region important for binding [1]
3-14 | – | 29 (DNQKYRQLQKELSQV; epitope) [compound 29] | –
7-15 | – | 31 (YNSMEQLCINFTNEK; epitope) [compound 31] | 2
1-10 | – | 32 (LYPPPPPEDKAKKGG; epitope) [compound 32] | –
5-14 | – | 34 (EEDKVNTLTKAKTKL; epitope) [compound 34] | –
2-8 | – | 40 (TDLRGLLKRLKKMKT; epitope) [compound 40] | –
3-7 | – | 45 (GAPVTGYLMERKKKG; epitope) [compound 45] | –
2-13 | – | 46 (RQKYIRRVGDKINLT; epitope) [compound 46] | –
– | bind in a patient-specific manner | 48 (NVAKAHGGYSVFAGV; epitope) [compound 48] | –
6-13 | – | 51 (DGDKSRYLGKGTVKA; epitope) [compound 51] | 7
6-15 | – | 53 (NLKNVIKAKYGKDAT; epitope) [compound 53] | 3-6
